Several values for one entry are separate records, joined by “and”; a condition that tells them apart may be missing. Equal values may be shown once.
Tests used:
VEGFR = conditions: cited from earlier work
plasma protein = conditions: cited from earlier work
[1] = cited from earlier work
hepatocellular carcinoma [2] = conditions: 50 mg q.d. in 4/2 weeks schedule, advanced HCC; cited from earlier work
HCC tumors = experiment: Tumor volume by DCE-MRI in HCC patients; assay type: in vivo, human; conditions: duration of the trial, vs baseline
hepatocellular carcinoma [3] = experiment: Time-to-tumor progression in HCC patients; assay type: in vivo, human; conditions: 37.5 mg q.d. with TACE (doxorubicin)
sVEGFR2 = experiment: PD indirect response modeling of sVEGFR2 plasma concentrations; assay type: in vivo, human; conditions: HCC patients, following treatment, mean baseline 15.7 µg/L
hepatocellular carcinoma [4] = conditions: phase III, HCC patients, compared to sorafenib; cited from earlier work
[5] = Hematological toxicities in the phase II pilot study; assay type: in vivo, human; conditions: HCC patients, 37.5 mg q.d.

| SMILES | potency relative to parent drug (VEGFR) | fb, bound fraction to plasma protein (plasma protein) | Q/Fperipheral, intercompartmental clearance (RSE%) ([1]; fixed to literature value) | V2/Fperipheral, peripheral volume of distribution (RSE%) ([1]; fixed to literature value) | median TTP (hepatocellular carcinoma [2]) [months] | HCC tumor volumes under treatment (HCC tumors) | median observed TTP (hepatocellular carcinoma [3]) | observed plasma concentrations of sVEGFR2 (sVEGFR2) | primary overall survival endpoint (hepatocellular carcinoma [4]) | toxicities (hepatocellular carcinoma [4]) | ka, first-order absorption rate constant (RSE%) ([1]; fixed to literature value) | fM, fraction of drug metabolized into the active metabolite SU12662 ([1]; fixed) | hematological toxicities [5] |
| --- | --- | --- | --- | --- | --- | --- | --- | --- | --- | --- | --- | --- | --- |
| CCNCCNC(=O)c1c(C)[nH]c(/C=C2\C(=O)Nc3ccc(F)cc32)c1C [SU12662] | equipotent to the parent drug | 0.95 | 27.7 (26) L/h | 345 (22) L | – | – | – | – | – | – | – | – | – |
| CCN(CC)CCNC(=O)c1c(C)[nH]c(/C=C2\C(=O)Nc3ccc(F)cc32)c1C [Sunitinib, Sunitinib malate] | – | 0.9 | 6.37 (18) L/h | 588 (8.7) L | 5.3 | remained relatively unchanged compared to their baseline values | 7 months and 8 months | gradually decreased over time | failed its primary OS endpoint | more frequent toxicities than sorafenib | 0.195 (6.8) 1/h | 0.21 | absence of hematological toxicities |
